Where a SMILES comes first, the peptide text is derived from it.
Test system: A431 human skin squamous cell carcinoma cells
Assay: In vitro cellular uptake quantified by flow cytometry
Type: cell-based
Settings: all concentrations (0.2–25 μM), 90 min, ratio of Cf-positive cells and mean fluorescence intensity

`N=C(N)NCCC[C@H](NC(=O)[C@@H]1CCCN1C(=O)[C@H](CCC(N)=O)NC(=O)[C@H](CCCCN)NC(=O)[C@H](CC(=O)O)NC(=O)[C@@H]1CCCN1C(=O)[C@H](Cc1ccccc1)NC(=O)CNC(=O)[C@H](CCC(=O)O)NC(=O)[C@H](Cc1ccccc1)NC(=O)[C@@H](N)Cc1ccccc1)C(=O)N[C@@H](CCCCN)C(=O)N[C@@H](CCCCN)C(N)=O` [Peptide S100] (H-FFEGFPDKQPRKK-NH2) was tested, and the “cellular uptake rate, comparison between peptides” value was “lowest cellular uptake rate”.

Source: article PMC8697381 (ACS Omega, 2021)
